Test results taken from patent publication US20240124504A1, “AROMATIC HETEROCYCLIC COMPOUND, AND PHARMACEUTICAL COMPOSITION AND APPLICATION THEREOF” (GT APEIRON THERAPEUTICS LIMITED, priority 2020, published 2024).

What was measured:
[1] = biological target: CDK7/cyclinH/MAT1 complex (Homo sapiens, UniProt P50613); test: In-vitro enzymatic inhibitory activity testing, CDK7 inhibition assay (Caliper EZ Reader II); format: biochemical; details: CDK7/cyclinH/MAT1 6 nM, 180 min at 27° C.
Summary of the method: (§1)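 Enzyme preincubated 10 min with compound, then peptide substrate plus ATP added in 80 mM MES pH 6.5, 10 mM MgCl2 buffer; 180 min at 27 °C, stopped with EDTA.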

[2] = biological target: CDK2/cyclinE1 complex (Homo sapiens, UniProt P24941); test: In-vitro enzymatic inhibitory activity testing, CDK2 inhibition assay (Caliper EZ Reader II); format: biochemical; details: CDK2/cyclinE1 0.5 nM, 180 min at 27° C.
Summary of the method: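 CDK2/cyclinE1 (0.5 nM) phosphorylated 5-FAM-CDK7tide (2 μM) in MES buffer pH 6.5 with MgCl2, Tween 20 and BSA. Substrate and product were separated electrophoretically on a Caliper EZ Reader II. IC50 values came from nonlinear dose-response fits.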

[3] = biological target: CDK9/cyclinT1 complex (Homo sapiens, UniProt P50750); test: In-vitro enzymatic inhibitory activity testing, CDK9 inhibition assay (Caliper EZ Reader II); format: biochemical; details: CDK9/cyclinT1 8 nM, 180 min at 27° C.
CDK9/cyclinT1 complex, sequence (P50750 whole entry, species assumed): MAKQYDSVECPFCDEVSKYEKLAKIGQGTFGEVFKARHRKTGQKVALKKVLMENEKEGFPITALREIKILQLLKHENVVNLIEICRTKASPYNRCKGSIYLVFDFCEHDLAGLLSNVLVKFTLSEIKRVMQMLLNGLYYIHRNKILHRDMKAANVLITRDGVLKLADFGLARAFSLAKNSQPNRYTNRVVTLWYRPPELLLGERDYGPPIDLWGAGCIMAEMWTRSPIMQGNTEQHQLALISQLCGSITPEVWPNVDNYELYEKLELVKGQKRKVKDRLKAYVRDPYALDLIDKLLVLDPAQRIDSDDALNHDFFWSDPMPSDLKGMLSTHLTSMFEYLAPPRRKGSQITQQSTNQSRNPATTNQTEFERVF
CDK9/cyclinT1 complex, sequence (O60563 whole entry partner, species assumed): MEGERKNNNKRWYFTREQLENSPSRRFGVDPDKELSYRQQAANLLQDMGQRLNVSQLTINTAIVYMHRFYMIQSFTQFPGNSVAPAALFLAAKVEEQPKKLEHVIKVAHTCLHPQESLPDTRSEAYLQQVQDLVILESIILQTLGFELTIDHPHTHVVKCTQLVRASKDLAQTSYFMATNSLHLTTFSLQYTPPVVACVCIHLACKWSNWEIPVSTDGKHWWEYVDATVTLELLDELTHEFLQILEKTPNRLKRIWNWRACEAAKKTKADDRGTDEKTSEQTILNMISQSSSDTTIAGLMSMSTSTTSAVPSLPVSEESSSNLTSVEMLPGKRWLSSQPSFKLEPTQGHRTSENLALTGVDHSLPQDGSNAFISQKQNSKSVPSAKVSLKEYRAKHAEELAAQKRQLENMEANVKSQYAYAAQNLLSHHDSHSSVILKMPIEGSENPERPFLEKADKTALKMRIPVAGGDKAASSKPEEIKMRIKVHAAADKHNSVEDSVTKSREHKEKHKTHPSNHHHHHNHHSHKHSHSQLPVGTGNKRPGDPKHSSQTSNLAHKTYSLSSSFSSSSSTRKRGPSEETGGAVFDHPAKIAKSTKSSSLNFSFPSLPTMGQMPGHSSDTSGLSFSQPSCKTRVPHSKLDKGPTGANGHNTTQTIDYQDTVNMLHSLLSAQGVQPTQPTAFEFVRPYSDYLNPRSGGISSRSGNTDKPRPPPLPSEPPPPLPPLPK
Summary of the method: as §1

[4] = biological target: T1, CDK12 (aa686-1082)/cyclinK complex (Homo sapiens, UniProt Q9NYV4); test: In-vitro enzymatic inhibitory activity testing, CDK12 inhibition assay (Caliper EZ Reader II); format: biochemical; details: CDK12/cyclinK 50 nM, 180 min at 27° C.; read-out: CDK12 IC50
T1 construct: A CDK12 (aa686-1082)/cyclinK complex (50 nM)
T1 sequence (Q9NYV4 686-1082, species assumed): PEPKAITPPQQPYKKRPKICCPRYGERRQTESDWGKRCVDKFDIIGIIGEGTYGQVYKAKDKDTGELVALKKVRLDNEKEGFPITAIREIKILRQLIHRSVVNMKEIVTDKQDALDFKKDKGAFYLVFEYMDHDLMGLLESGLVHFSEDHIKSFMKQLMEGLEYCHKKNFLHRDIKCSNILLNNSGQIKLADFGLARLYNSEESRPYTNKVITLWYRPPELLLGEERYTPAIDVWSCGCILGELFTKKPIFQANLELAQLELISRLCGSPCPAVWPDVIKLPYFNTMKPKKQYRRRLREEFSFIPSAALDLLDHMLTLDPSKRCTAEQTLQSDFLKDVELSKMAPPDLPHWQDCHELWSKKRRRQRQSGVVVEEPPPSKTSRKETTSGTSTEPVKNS
T1 sequence (O75909 whole entry partner, species assumed, the tested form may be a part): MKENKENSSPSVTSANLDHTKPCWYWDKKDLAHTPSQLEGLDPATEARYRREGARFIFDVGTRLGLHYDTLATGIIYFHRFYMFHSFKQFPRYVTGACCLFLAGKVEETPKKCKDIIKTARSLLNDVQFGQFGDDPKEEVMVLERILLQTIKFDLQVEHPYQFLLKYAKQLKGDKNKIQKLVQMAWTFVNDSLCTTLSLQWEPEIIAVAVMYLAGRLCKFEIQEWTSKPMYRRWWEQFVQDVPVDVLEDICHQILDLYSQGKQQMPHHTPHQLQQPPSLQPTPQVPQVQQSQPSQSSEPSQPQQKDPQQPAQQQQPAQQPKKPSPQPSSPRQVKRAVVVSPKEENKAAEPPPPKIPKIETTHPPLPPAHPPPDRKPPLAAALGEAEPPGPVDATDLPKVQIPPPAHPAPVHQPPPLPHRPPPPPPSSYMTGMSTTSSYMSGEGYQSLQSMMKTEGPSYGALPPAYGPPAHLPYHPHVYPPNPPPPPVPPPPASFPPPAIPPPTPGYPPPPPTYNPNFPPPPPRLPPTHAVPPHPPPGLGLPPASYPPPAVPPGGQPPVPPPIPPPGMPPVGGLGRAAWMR
Summary of the method: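 Caliper EZ Reader II mobility-shift separation of 5-FAM-CDK9tide substrate (2 μM) from phosphoproduct, using 50 nM CDK12 (aa686-1082)/cyclinK in 80 mM MES pH 6.5, 10 mM MgCl2, 0.01% Tween 20, 50 ug/mL BSA. Compound pre-incubated 10 min with enzyme, then substrate/ATP added for 180 min at 27° C; EDTA stop. IC50 by nonlinear dose-response regression.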

[5] = tested on: human breast cancer cells HCC70; test: Cell biological activity detection (CyQuant, 72 hours), HCC70; format: cell-based; details: incubation for 72 hours
Summary of the method: (§2)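 A2780 and HCC70 cells seeded at 2000/well in RPMI 1640 + 10% FBS, treated next day with 9-point compound dilutions (top 10 μM, 1:4; 0.2% DMSO) for 72 h at 37 °C. Cell number read by CyQuant Direct nucleic acid stain (ex 488 nm); IC50 from dose–response fit.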

[6] = tested on: ovarian cancer A2780; test: Cell biological activity detection (CyQuant, 72 hours), A2780; format: cell-based, human; details: A2780 cells, incubation for 72 hours
Summary of the method: as §2

CDK7/cyclinH/MAT1 complex, sequence (P50613 whole entry, species assumed): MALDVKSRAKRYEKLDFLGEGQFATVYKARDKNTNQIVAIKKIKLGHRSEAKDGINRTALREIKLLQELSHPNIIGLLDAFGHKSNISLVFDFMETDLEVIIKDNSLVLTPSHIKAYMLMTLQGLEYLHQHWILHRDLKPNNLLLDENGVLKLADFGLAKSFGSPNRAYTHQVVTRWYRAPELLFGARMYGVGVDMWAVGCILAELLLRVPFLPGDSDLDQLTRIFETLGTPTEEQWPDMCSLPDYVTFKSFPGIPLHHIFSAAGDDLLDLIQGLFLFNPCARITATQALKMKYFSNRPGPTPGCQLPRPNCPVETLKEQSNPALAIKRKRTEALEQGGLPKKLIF
CDK7/cyclinH/MAT1 complex, sequence (P51946 whole entry partner, species assumed): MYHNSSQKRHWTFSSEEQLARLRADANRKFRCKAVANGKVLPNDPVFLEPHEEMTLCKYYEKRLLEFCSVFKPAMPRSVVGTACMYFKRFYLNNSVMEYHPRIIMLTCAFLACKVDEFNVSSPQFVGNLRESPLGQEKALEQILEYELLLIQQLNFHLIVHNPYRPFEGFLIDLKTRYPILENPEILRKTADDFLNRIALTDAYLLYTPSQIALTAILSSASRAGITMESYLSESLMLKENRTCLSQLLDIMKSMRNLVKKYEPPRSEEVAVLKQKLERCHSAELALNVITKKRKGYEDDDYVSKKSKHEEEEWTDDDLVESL
CDK7/cyclinH/MAT1 complex, sequence (P51948 whole entry partner, species assumed): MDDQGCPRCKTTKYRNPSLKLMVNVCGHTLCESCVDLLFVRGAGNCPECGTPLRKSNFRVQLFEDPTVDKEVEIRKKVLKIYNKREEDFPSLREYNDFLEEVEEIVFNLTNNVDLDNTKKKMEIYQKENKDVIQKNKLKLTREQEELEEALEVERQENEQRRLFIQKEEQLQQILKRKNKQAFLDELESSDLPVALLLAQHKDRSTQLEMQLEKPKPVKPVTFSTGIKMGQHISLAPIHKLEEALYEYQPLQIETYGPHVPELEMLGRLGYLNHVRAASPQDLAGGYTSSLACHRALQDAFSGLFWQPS

SMILES	IC50 [1]	IC50 [2]	IC50 [3]	IC50 [4]	IC50 ([5]; Homo sapiens, HCC70, 72 h)	IC50 ([6]; Homo sapiens, A2780, 72 h)	IC50 [5]	IC50 [6]
CP(C)(=O)c1cccc2c(-c3nc(N[C@@H]4CCC45CNC5)ncc3C(F)(F)F)c[nH]c12 [Compound 80]	< 20 nM	0.2 to 5 µM	5 to 50 µM	5 to 50 µM	< 20 nM	< 20 nM		
Cc1cnc(N[C@@H](C)CO)nc1-c1c[nH]c2c(P(C)(C)=O)cccc12 [Compound 178]	20 to 200 nM	5 to 50 µM	> 50 µM	> 50 µM	200 to 5000 nM	20 to 200 nM		
C[C@H](O)CNc1ncc(C(F)(F)F)c(-c2c[nH]c3c(P(C)(C)=O)cccc23)n1 [Compound 173, (S)-(3-(2-((2-hydroxypropyl)amino)-5-(trifluoromethyl)pyrimidin-4-yl)-1H-indole-7-yl)dimethylphosphine oxide]	< 20 nM	5 to 50 µM	> 50 µM	> 50 µM	20 to 200 nM	20 to 200 nM		
C[C@@H](O)CNc1ncc(C(F)(F)F)c(-c2c[nH]c3c(P(C)(C)=O)cccc23)n1 [Compound 172, (R)-(3-(2-((2-hydroxypropyl)amino)-5-(trifluoromethyl)pyrimidin-4-yl)-1H-indole-7-yl)dimethylphosphine oxide]	20 to 200 nM	0.2 to 5 µM	> 50 µM	> 50 µM	20 to 200 nM	20 to 200 nM		
FC(F)(F)c1cnc(NCC2CCNC2)nc1-c1c[nH]c2nc(N3CCOCC3)ccc12 (stereo not drawn) [Compound 52, 4-(6-morpholinyl-1H-pyrrolo[2,3-b]pyridin-3-yl)-N-(pyrrolidin-3-ylmethyl)-5-(trifluoromethyl)pyrimidin-2-amine]	20 to 200 nM	5 to 50 µM	5 to 50 µM	5 to 50 µM	200 to 5000 nM	200 to 5000 nM		
CP(C)(=O)c1cccc2c(-c3nc(NCC4(O)CCCC4)ncc3C(F)(F)F)c[nH]c12 [Compound 151]	20 to 200 nM	5 to 50 µM	> 50 µM	> 50 µM	20 to 200 nM	20 to 200 nM		
CP(C)(=O)c1cccc2c(-c3nc(NC4CCC5(CCNC5)C4)ncc3C(F)(F)F)c[nH]c12 (single isomer, unassigned) [Compound 100]	< 20 nM	0.2 to 5 µM	5 to 50 µM	0.2 to 5 µM			< 20 nM	< 20 nM
C[C@H](Nc1ncc(C(F)(F)F)c(-c2c[nH]c3c(P(C)(C)=O)cccc23)n1)C(C)(C)O [Compound 163, (S)-(3-(2-((3-hydroxy-3-methylbutan-2-yl)amino)-5-(trifluoromethyl)pyrimidin-4-yl)-1H-indole-7-yl)dimethylphosphine oxide]	20 to 200 nM	5 to 50 µM	> 50 µM	> 50 µM	200 to 5000 nM	20 to 200 nM		
CP(C)(=O)c1cccc2c(-c3nc(NC4CC45CCNC5)ncc3C(F)(F)F)c[nH]c12 (single isomer, unassigned) [Compound 111]	20 to 200 nM	5 to 50 µM	> 50 µM	> 50 µM			20 to 200 nM	< 20 nM
CP(C)(=O)c1cccc2c(-c3nc(NC4CC45CCNC5)ncc3C(F)(F)F)c[nH]c12 (single isomer, unassigned) [Compound 110]	< 20 nM	5 to 50 µM	> 50 µM	5 to 50 µM			20 to 200 nM	< 20 nM
Cc1noc(C)c1-c1ccc2c(-c3nc(NC4CCC5(CCNC5)C4)ncc3C(F)(F)F)c[nH]c2n1 (stereo not drawn) [Compound 35, N-(4-(6-(3,5-dimethylisoxazol-4-yl)-1H-pyrrolo[2,3-b]pyridin-3-yl)-5-(trifluoromethyl)pyrimidin-2-yl)-2-azaspiro[4.4]non-7-amine]	< 20 nM	0.2 to 5 µM	0.2 to 5 µM	0.2 to 5 µM	20 to 200 nM	20 to 200 nM		
